Test results from US8318422B2, “Antibacterial treatment of osteoarthritis” (Orthogenics AS, priority 2001, dated 2012).

Assays:
[1] = tested on: patients with Osteoarthritis; experiment: Clinical study: antibiotic treatment of patients with osteoarthritis, KOOS (Knee Injury and Osteoarthritis Outcome Score); assay type: in vivo, human; conditions: 100 mg daily for 4 weeks
From the text: Thirty patients were diagnosed and treated for one month with the antibiotic known generically internationally as Doxycycline, this was purchased as Vibramycin from Pfizer. Samples from synovial fluid were taken before and after treatment. We identified 30 patients that had clinical and radiological signs of Osteoarthritis. These patients were informed and signed a paper according to the instructions from the ethical committee (Northern Norway Health Region 5). We used the KOOS (Knee Injury and Osteoarthritis Outcome Score) [Roos et al: Development of a self-administered outcome measure. Journal of Orthopaedic and Sports Physical Therapy 78(2): 88-96, 1998] and the Lysholm score [Ref. […] and Lysholm: Rating systems in the Evaluation of Knee Ligament Injuries. Clinical Orthopaedics an Related Research Number 198 September 1985: 43-49.] During the first visit we took a sample from the synovial fluid. Standard technique, upper lateral portal, using a 10 ml. syringe. […] The samples were immediately put into an icebox and brought to the lab. All the patients were given Vibramycin 100 mg daily for 4 weeks. From the patients where we found the bacteria, we took new synovial-fluid samples using the same technique. […] KOOS: These parameters were analysed. • Symptoms • Activity of daily living • Sport • Quality of daily living • Pain

[2] = tested on: patients with Osteoarthritis; experiment: Clinical study: response to antibiotic treatment as determined by direct questions to the patients; assay type: in vivo, human; conditions: following 4 weeks of treatment
From the text: Thirty patients were diagnosed and treated for one month with the antibiotic known generically internationally as Doxycycline, this was purchased as Vibramycin from Pfizer. Samples from synovial fluid were taken before and after treatment. We identified 30 patients that had clinical and radiological signs of Osteoarthritis. These patients were informed and signed a paper according to the instructions from the ethical committee (Northern Norway Health Region 5). During the first visit we took a sample from the synovial fluid. Standard technique, upper lateral portal, using a 10 ml. syringe. […] The samples were immediately put into an icebox and brought to the lab. All the patients were given Vibramycin 100 mg daily for 4 weeks. From the patients where we found the bacteria, we took new synovial-fluid samples using the same technique. Table 3 below show a summary of the response to antibiotic treatment with tetracycline for four weeks as determined by direct questions to the patients on how they felt.

collagenase = conditions: Yu et al. 1991; cited from earlier work
Pseudomonas [3] = conditions: cited from earlier work
Pseudomonas [4] = conditions: cited from earlier work; remark: listed apart in the source

For `C[C@H]1c2cccc(O)c2C(O)=C2C(=O)[C@]3(O)C(O)=C(C(N)=O)C(=O)[C@@H](N(C)C)[C@@H]3[C@@H](O)[C@@H]21` [Vibramycin, Doxycycline], the “clinical scores for the patient (KOOS and Lysholm)” value [1] is given as “improved all the clinical scores”, the “symptoms in the majority of patients tested” value [2] is given as “improved symptoms” and the “the patient's collagenase activity” value (collagenase) is given as “inhibit the patient's collagenase activity”.

In the case of `CC(O)C(=O)O.O=C(O)c1cn(C2CC2)c2cc(N3CCNCC3)c(F)cc2c1=O` [ciprofloxacinlactate], the “effectiveness against Pseudomonas” value (Pseudomonas [3]) is given as “effective against Pseudomonas”.

In the case of `NC(N)=NCCS` [mercaptoethylguanidine], the “inflammatory response of Pseudomonas infection due to nitric oxide” value (Pseudomonas [4]) is given as “inhibit the inflammatory response”.
